This assay has as its target T1, Glutamate carboxypeptidase 2 [44-750] (Homo sapiens, UniProt Q04609).
T1 construct: 44-750
Kind of assay: IC50 Assay. The following applies: pH 7.4; 37 °C. The method, then:
Inhibitors were made in TRIS buffer (50mM Tris pH 7.4 containing 1% Triton X-100). Working solutions of purified GCPII (50ug/mL) were diluted in TRIS buffer to provide from 15% to 20% conversion of substrate to product in the absence of inhibitor. The incubation mixture (final volume 250μL) contained either 25μL of an inhibitor solution or 25μL TRIS buffer to 175μ TRIS buffer in a test tube, followed by the addition of PABGgG (25μL, […]). The enzymatic reaction was initiated by the addition of 25μL of the GCPII working solution and allowed to proceed for 15min with constant shaking at 37°C. The reaction was quenched by the addition of 25μL methanolic TFA (2% trifluoroacetic acid by volume in methanol) followed by vortexing. The quenched mixture was immediately buffered by the addition of 25μL K2HPO4 (0.1M), vortexed, and centrifuged.

A value given as a limit tells only on which side of the number the result lay.

This note sets out measurements from BindingDB's records for doi:10.1111/cbdd.12174 (Washington State University At Pullman, 2013).

T1 sequence (Q04609 44-750): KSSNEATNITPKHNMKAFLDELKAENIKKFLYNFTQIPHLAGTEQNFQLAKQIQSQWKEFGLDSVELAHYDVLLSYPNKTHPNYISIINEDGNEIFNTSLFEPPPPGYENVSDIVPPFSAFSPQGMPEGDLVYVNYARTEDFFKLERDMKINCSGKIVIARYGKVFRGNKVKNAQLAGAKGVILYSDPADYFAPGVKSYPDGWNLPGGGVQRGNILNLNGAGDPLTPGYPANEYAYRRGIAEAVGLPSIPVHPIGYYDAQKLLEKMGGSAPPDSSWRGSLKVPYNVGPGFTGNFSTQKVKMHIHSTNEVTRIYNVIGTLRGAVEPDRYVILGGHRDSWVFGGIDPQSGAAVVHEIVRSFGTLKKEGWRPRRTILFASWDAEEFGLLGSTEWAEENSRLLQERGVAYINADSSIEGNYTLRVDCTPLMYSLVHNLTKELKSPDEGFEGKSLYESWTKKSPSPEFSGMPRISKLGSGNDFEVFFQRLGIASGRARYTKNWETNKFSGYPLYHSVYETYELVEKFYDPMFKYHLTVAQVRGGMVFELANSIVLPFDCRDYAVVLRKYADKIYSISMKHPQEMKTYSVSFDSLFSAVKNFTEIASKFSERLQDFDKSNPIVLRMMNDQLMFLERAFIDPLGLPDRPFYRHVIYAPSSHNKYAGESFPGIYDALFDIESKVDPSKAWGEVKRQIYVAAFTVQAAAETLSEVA

One may read the IC50 as the concentration needed to halve the response being measured. Low values mean inhibition by little substance, high ones a need for much substance. `O=C(O)CC[C@H](NS(=O)(=O)NC[C@H](NC(=O)c1ccccc1)C(=O)O)C(=O)O` [(S)-2-((N-((S)-2-benzamido-2-carboxyethyl)sulfamoyl)amino)pentanedioic acid (2b)] returned an IC50 of over 100 µM.
